Assay results as given in patent US11103493B2, “Substituted pyridinyl compounds as indoleamine 2,3-dioxygenase (IDO) inhibitors” (Merck Sharp & Dohme Corp., priority 2017, dated 2021).

Target: T1, IDO1 (Homo sapiens, UniProt P14902)
Test: IDO1 Human Whole Blood Assay
Format: cell-based
Settings: LPS and IFNγ 100 ng/mL, 18 h, kynurenine by LC/MS/MS
Experimental: IDO1 Human Whole Blood Assay
Compounds to be tested were serially diluted in ten 3-fold steps in DMSO starting from 10 mM. 3 μL of compound dilutions or DMSO alone were then dispensed from the dilution plate into a polypropylene 96-well assay plate containing 97 μL of RPMI medium using an Echo 555 acoustic liquid handler (Labcyte). LPS and IFNγ was prepared in RPMI medium to a 10× of final conc. (1000 ng/mL), final concentration is 100 ng/mL.
Human whole blood was drawn in sodium heparin coated tubes from healthy internal donors. 240 μL of blood was transferred to each of the wells of a v-bottom 96 well plate. 30 μL of compound was transferred from intermediate dilution plate, and incubated for 15 min. 30 μL from stimulants was then transferred to blood and mixed thoroughly. Plate was covered with breathable membrane and incubated at 37° C. for overnight (18 h).
On day 2, isotope labeled standard solutions of kunurenine and tryptophan was made in water at 10× concentration and 30 μL was added to the blood at […] concentration. The assay plates were centrifuged at 300×G for 10 min with no brake to separate plasma from red blood cells. 60 μL of plasma samples was removed without disturbing red blood cells. Plasma was diluted with RPMI in 1:1 ratio and proteins were precipitated out with two volumes of Acetonitrile. The plates were centrifuged at 4000×G for 60 min. 20 μL of supernatant was carefully transferred to a 384 well plate containing 40 μL of 0.1% formic acid in water and analyzed by LC/MS/MS.
LC/MS/MS analyses were performed using Thermo Fisher's LX4-TSQ Quantum Ultra system. This system consists of four Agilent binary high-performance liquid chromatography (HPLC) pumps and a TSQ Quantum Ultra triple quadrupole MS/MS instrument. For each sample, 5 μL were injected onto an Atlantis T3 column (2.1 mm×150 mm, 3 μm particle size) from Waters. The mobile phase gradient pumped at 0.8 mL/min was used to elute the analytes from the column at 25° C. The elution started at 0% B increasing linearly to 25% B at 6.5 min, holding at 25% for 1 min, re-equilibrating to 10 min. Mobile phase A consisted of 0.1% formic acid in water. Mobile phase B consisted of 0.1% of formic acid in acetonitrile. Data was acquired in positive mode using a HESI interface. The operational parameters for the TSQ Quantum Ultra instrument were a spray voltage of 4000 V, capillary temperature of 380° C., vaporizer temperature 400° C., shealth gas 60 arbitrary units, Aux gas 20 arbitrary units, tube lens 85 and collision gas 1.2 mTorr. SRM chromatograms of kynurenine (QI: 209.2>Q3:94.0) and internal standard (QI: 215.3>Q3:98.2) were collected for 90 sec. The peak area was integrated by Xcalibur Quan software. The ratios between the kynurenine generated in the reaction and 2D6-Kynurenine spiked-in internal standard were used to generate percentage inhibition and IC50 values. Compounds were titrated and IC50's were calculated by 4 parameter sigmoidal curve fitting formula.

T1 sequence (P14902 whole entry): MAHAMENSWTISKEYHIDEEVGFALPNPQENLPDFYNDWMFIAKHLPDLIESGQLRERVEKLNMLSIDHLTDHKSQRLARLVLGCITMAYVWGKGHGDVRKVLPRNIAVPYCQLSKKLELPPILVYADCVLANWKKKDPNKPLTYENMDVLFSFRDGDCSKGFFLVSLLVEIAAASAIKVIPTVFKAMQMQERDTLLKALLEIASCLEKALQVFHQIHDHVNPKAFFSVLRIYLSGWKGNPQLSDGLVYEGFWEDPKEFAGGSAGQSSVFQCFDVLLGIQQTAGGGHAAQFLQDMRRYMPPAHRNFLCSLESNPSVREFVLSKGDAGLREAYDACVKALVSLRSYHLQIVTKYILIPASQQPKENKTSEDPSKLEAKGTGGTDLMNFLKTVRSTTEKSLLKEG

Compound	IC50
O=C(Nc1ccc(C2(c3nc4ncc(Br)cc4[nH]3)CCC2)cn1)c1cccc(Cl)c1 [Ex. 1, N-(5-(1-(6-bromo-1H-imidazo[4,5-b]pyridin-2-yl)cyclobutyl)pyridin-2-yl)-3-chlorobenzamide]	159 nM
N#Cc1cnc2nc(C3(c4ccc(NC(=O)c5cccc(Cl)c5)nc4)CCC3)[nH]c2c1 [Ex. 2, 3-Chloro-N-(5-(1-(6-cyano-1H-imidazo[4,5-b]pyridin-2-yl)cyclobutyl)pyridin-2-yl)benzamide]	387 nM
O=C(Nc1ccc(C2(c3nc4ccccc4[nH]3)CCC2)cn1)c1cccc(Cl)c1 [Ex. 3, N-(5-(1-(1H-benzo[d]imidazol-2-yl)cyclobutyl)pyridin-2-yl)-3-chlorobenzamide]	429 nM
N#Cc1cccc(C(=O)Nc2ccc(C3(c4nc5cc(C#N)ccc5[nH]4)CCC3)cn2)c1 [Ex. 5, 3-Cyano-N-(5-(1-(5-cyano-1H-benzo[d]imidazol-2-yl)cyclobutyl)pyridin-2-yl)benzamide]	864 nM

Target: T1, IDO1
Test: IDO1 Cellular Assay in HeLa Cells Stimulated with IFNγ
Format: cell-based
Settings: IFNγ 100 ng/mL, 300 uM L-tryptophan, about 48 hours incubation, fluorescence readout, read-out: IDO1 HeLa Cell Assay, IC50
Experimental: IDO1 Cellular Assay in HeLa Cells Stimulated with IFNγ
HeLa cells were cultured in complete HeLa culture medium (90% EMEM, 10% heat-inactivated fetal bovine serum) and expanded to about 1×10^9 cells. The cells were then collected and frozen down at 1×10^7 cells/vial in 1 mL frozen medium (90% complete HeLa culture medium, 10% DMSO).
Compounds to be tested were serially diluted in ten 3-fold steps in DMSO starting from 10 mM DMSO stocks in Echo low volume plate(s).
Frozen HeLa cells were thawed and transferred into HeLa assay medium (99% complete HeLa culture medium, 1% Pen/Strep) with 20 mL medium/vial of cells. The cells were spun down at 250 g in a table top centrifuge for 5 min and suspended in same volume of HeLa assay medium. The cells were then counted and adjusted to a density of 2×10^5 cells/mL in HeLa assay medium. Sterile L-tryptophan were added to the cells with final concentration of 300 uM L-tryptophan. A small aliquot (2 mL/plate) of HeLa cells were set aside and were not treated with IFNγ, to serve as the Max-E control.
HeLa cells with and without IFNγ were dispensed to the respective wells of 384-well assay plates containing the compounds. The plates were incubated for about 48 hours at a 37° C., 5% CO2 incubator. Afterwards, 12 μL of 0.5 M methyl isonipecotate in dimethyl sulfoxide were added into each well and the plates were sealed and incubated at 37° C. without CO2 overnight. The plates were centrifuged for 1 min at 200×g. The resulting fluorescence was measured in a Spectramax plate reader (Molecular Devices) with a 400 nm excitation filter and a 510 nm emission filter.
Potencies were calculated by […] least squares fit to the four parameter logistic IC50 equation.

Compound	IC50
O=C(Nc1ccc(C2(c3nc4ncc(Br)cc4[nH]3)CCC2)cn1)c1cccc(Cl)c1 [Ex. 1, N-(5-(1-(6-bromo-1H-imidazo[4,5-b]pyridin-2-yl)cyclobutyl)pyridin-2-yl)-3-chlorobenzamide]	10.1 nM
N#Cc1cnc2nc(C3(c4ccc(NC(=O)c5cccc(Cl)c5)nc4)CCC3)[nH]c2c1 [Ex. 2, 3-Chloro-N-(5-(1-(6-cyano-1H-imidazo[4,5-b]pyridin-2-yl)cyclobutyl)pyridin-2-yl)benzamide]	13.6 nM
O=C(Nc1ccc(C2(c3nc4ccccc4[nH]3)CCC2)cn1)c1cccc(Cl)c1 [Ex. 3, N-(5-(1-(1H-benzo[d]imidazol-2-yl)cyclobutyl)pyridin-2-yl)-3-chlorobenzamide]	6.87 nM
N#Cc1cnc2nc(C3(c4ccc(NC(=O)c5cncc(F)c5)nc4)CCC3)[nH]c2c1 [Ex. 4, N-(5-(1-(6-cyano-1H-imidazo[4,5-b]pyridin-2-yl)cyclobutyl)pyridin-2-yl)-5-fluoronicotinamide]	144 nM
N#Cc1cccc(C(=O)Nc2ccc(C3(c4nc5cc(C#N)ccc5[nH]4)CCC3)cn2)c1 [Ex. 5, 3-Cyano-N-(5-(1-(5-cyano-1H-benzo[d]imidazol-2-yl)cyclobutyl)pyridin-2-yl)benzamide]	12.5 nM
N#Cc1cnc2[nH]c(C3(c4ccc(NC(=O)c5cccc(Cl)c5)nc4)CCC3)cc2c1 [Ex. 6, 3-Chloro-N-(5-(1-(5-cyano-1H-pyrrolo[2,3-b]pyridin-2-yl)cyclobutyl)pyridin-2-yl)benzamide]	633 nM
Cc1cccc2nc(C3(c4ccc(NC(=O)c5cccc(Cl)c5)nc4)CCC3)[nH]c12 [Ex. 11, 3-chloro-N-{5-[1-(7-methyl-1H-benzimidazol-2-yl)cyclobutyl]pyridin-2-yl}benzamide]	10.2 nM
CC(C)(C)c1ccc2nc(C3(c4ccc(NC(=O)c5cccc(Cl)c5)nc4)CCC3)[nH]c2c1 [Ex. 12, N-{5-[1-(6-tert-butyl-1H-benzimidazol-2-yl)cyclobutyl]pyridin-2-yl}-3-chlorobenzamide]	433 nM
COc1ccc2nc(C3(c4ccc(NC(=O)c5cccc(Cl)c5)nc4)CCC3)[nH]c2c1 [Ex. 14, 3-chloro-N-{5-[1-(6-methoxy-1H-benzimidazol-2-yl)cyclobutyl]pyridin-2-yl}benzamide]	5.62 nM
COc1cccc2[nH]c(C3(c4ccc(NC(=O)c5cccc(Cl)c5)nc4)CCC3)nc12 [Ex. 15, 3-chloro-N-{5-[1-(4-methoxy-1H-benzimidazol-2-yl)cyclobutyl]pyridin-2-yl}benzamide]	10.1 nM
O=C1COc2cc3[nH]c(C4(c5ccc(NC(=O)c6cccc(Cl)c6)nc5)CCC4)nc3cc2N1 [Ex. 18, 3-chloro-N-{5-[1-(7-oxo-3,6,7,8-tetrahydroimidazo[4,5-g][1,4]benzoxazin-2-yl)cyclobutyl]pyridin-2-yl}benzamide]	132 nM
O=C(Nc1ccc(C2(c3nc4cc(-n5cnnn5)ccc4[nH]3)CCC2)cn1)c1cccc(Cl)c1 [Ex. 20, 3-chloro-N-(5-{1-[5-(1H-tetrazol-1-yl)-1H-benzimidazol-2-yl]cyclobutyl}pyridin-2-yl)benzamide]	262 nM
O=C(Nc1ccc(C2(c3nc4ccc(OC(F)(F)F)cc4[nH]3)CCC2)cn1)c1cccc(Cl)c1 [Ex. 22, 3-chloro-N-(5-{1-[6-(trifluoromethoxy)-1H-benzimidazol-2-yl]cyclobutyl}pyridin-2-yl)benzamide]	14.1 nM
Cc1cc2nc(C3(c4ccc(NC(=O)c5cccc(Cl)c5)nc4)CCC3)[nH]c2cc1C [Ex. 26, 3-chloro-N-{5-[1-(5,6-dimethyl-1H-benzimidazol-2-yl)cyclobutyl]pyridin-2-yl}benzamide]	9.66 nM
N#Cc1cccc(C(=O)Nc2ccc(C3(c4nc5cc(C#N)cnc5[nH]4)CCC3)cn2)c1 [Ex. 29, 3-cyano-N-{5-[1-(6-cyano-3H-imidazo[4,5-b]pyridin-2-yl)cyclobutyl]pyridin-2-yl}benzamide]	46 nM
O=C(Nc1ccc(C2(c3nc4ccccc4n3CCO)CCC2)cn1)c1cccc(Cl)c1 [Ex. 31, 3-Chloro-N-(5-(1-(1-(2-hydroxyethyl)-1H-benzo[d]imidazol-2-yl)cyclobutyl)pyridin-2-yl)benzamide]	200 nM
COC(=O)c1cccc2nc(C3(c4ccc(NC(=O)c5cccc(C#N)c5)nc4)CCC3)[nH]c12 [Ex. 35, Methyl 2-(1-(6-(3-cyanobenzamido)pyridin-3-yl)cyclobutyl)-1H-benzo[d]imidazole-7-carboxylate]	383 nM
N#Cc1cccc(C(=O)Nc2ccc(C3(c4nc5cccc(C(=O)O)c5[nH]4)CCC3)cn2)c1 [Ex. 36, 2-(1-(6-(3-Cyanobenzamido)pyridin-3-yl)cyclobutyl)-1H-benzo[d]imidazole-7-carboxylic acid]	10000 nM
COC(c1ccc(NC(=O)c2cccc(C#N)c2)nc1)c1nc2cc(C(F)(F)F)cnc2[nH]1 (centres unmarked) [Ex. 39, 3-Cyano-N-(5-(methoxy(6-(trifluoromethyl)-3H-imidazo[4,5-b]pyridin-2-yl)methyl)pyridin-2-yl)benzamide]	121 nM
CO[C@@H](c1ccc(NC(=O)c2cccc(C#N)c2)nc1)c1nc2cc(C(F)(F)F)cnc2[nH]1 [Ex. 40, (S)-3-cyano-N-(5-(methoxy(6-(trifluoromethyl)-3H-imidazo[4,5-b]pyridin-2-yl)methyl)pyridin-2-yl)benzamide]	94.8 nM
CO[C@H](c1ccc(NC(=O)c2cccc(C#N)c2)nc1)c1nc2cc(C(F)(F)F)cnc2[nH]1 [Ex. 41, (R)-3-cyano-N-(5-(methoxy(6-(trifluoromethyl)-3H-imidazo[4,5-b]pyridin-2-yl)methyl)pyridin-2-yl)benzamide]	263 nM
N#Cc1cccc(C(=O)Nc2ccc(C(O)c3nc4cc(C(F)(F)F)cnc4[nH]3)cn2)c1 (centres unmarked) [Ex. 42, 3-Cyano-N-(5-(hydroxy(6-(trifluoromethyl)-3H-imidazo[4,5-b]pyridin-2-yl)methyl)pyridin-2-yl)benzamide]	5910 nM
N#Cc1cccc(C(=O)Nc2ccc([C@H](O)c3nc4cc(C(F)(F)F)cnc4[nH]3)cn2)c1 [Ex. 43, (S)-3-cyano-N-(5-(hydroxy(6-(trifluoromethyl)-3H-imidazo[4,5-b]pyridin-2-yl)methyl)pyridin-2-yl)benzamide]	3860 nM
N#Cc1cccc(C(=O)Nc2ccc([C@@H](O)c3nc4cc(C(F)(F)F)cnc4[nH]3)cn2)c1 [Ex. 44, (R)-3-cyano-N-(5-(hydroxy(6-(trifluoromethyl)-3H-imidazo[4,5-b]pyridin-2-yl)methyl)pyridin-2-yl)benzamide]	6220 nM
O=C(Nc1ccc(C2(c3nc4c([nH]3)CCCC4)CCC2)cn1)c1cccc(Cl)c1 [Ex. 48, 3-Chloro-N-(5-(1-(4,5,6,7-tetrahydro-1H-benzo[d]imidazol-2-yl)cyclobutyl)pyridin-2-yl)benzamide]	99.7 nM
